What all share (type): cell-based
Test [1] has as its system Pythium ultimum. Description: Amended agar assay (PDA), colony growth. The following applies: Globisporangium ultimum; for inhibition of growth at 20 ppm: 20 ppm in amended PDA, 18° C., reduction in colony growth vs control plate; for EC50: amended agar, 5-fold dilutions. As for the experimental part:
(§1) Testing was carried out on potato dextrose agar (PDA) amended with each compound at a test concentration of 20 ppm. Amended agar was poured into three replicate 9 cm petri dishes. Each replicate dish was inoculated in the centre with a 5 mm agar plug taken from the leading edge of a culture aged between 2 and 7 days old; the age of the culture was dependant on the growth rate of the pathogen being tested. The test pathogens were Pythium ultimum and Phytophthora cinnamomi. Plates were incubated at 18° C. and the diameter of each colony measured before growth on the fastest growing plate reached the plate edge. This varied between 2 and 7 days depending on the growth rate of test pathogens. The % reduction in colony growth compared to the control plate was calculated for each pathogen. The results are provided in Table 1, in which D represents no control detected at this concentration; C represents up to 50% control; B from 50 to 99% control; and A represents a control of greater than 99%, i.e. no detectable colony growth.
(§2) Alternatively, or in addition, the same assay was conducted at descending test concentrations with 5-fold dilutions typically down to 0.032 ppm though sometimes as low as 0.00026 ppm, and an EC50 (the concentration at which 50% control would be achieved) was determined. The results are provided in Table 1 in which G represents an EC50 above 20 ppm, F represents an EC50 of 1-20 ppm and E represents and EC50 less than 1 ppm.

Another test has as its system Phytophthora cinnamomi. Description: Amended agar assay (PDA), colony growth. The following applies: Phytophthora cinnamomi; for inhibition of growth at 20 ppm: 20 ppm in amended PDA, 18° C., reduction in colony growth vs control plate, read-out: % control Phytophthora spp. 20 ppm; for EC50: amended agar, 5-fold dilutions (cells without *), read-out: EC50 Phytophthora spp. The method, then:
as §1, §2

The next test concerns oomycete plant pathogens. Description: Fungicidal activity testing, overall summary. Conditions: summary statement on Table 1. The method, then:
The activity of compounds of the invention was assessed by testing against certain oomycete plant pathogens and representative data are presented in Table 1.

For test [2], the system named is Pythium ultimum. Briefly: Amended agar assay (PDA), colony growth. Also on record: key to % control Pythium ultimum 2 ppm: D: no control detected at this concentration; C: up to 50% control; B: from 50 to 99% control; A: a control of greater than 99%, i.e. no detectable colony growth. Conditions: for inhibition of growth at 2 ppm: Globisporangium ultimum, read-out: % control Pythium ultimum 2 ppm.

The subject of a further test is Phytophthora cactorum. Description: 96 well plate test (amended agar with spores). The following applies: 96 well plate, 20, 2, 0.2 and 0.02 ppm, 1% PDA, 2 to 3 days (cells marked *), read-out: EC50 Phytophthora spp. (*96 well plate format vs. Phytophthora cactorum). As for the experimental part:
Compounds were screened in 96 well plates with 10 compounds per plate. Each compound was screened using agar amended to 20, 2, 0.2 and 0.02 ppm, with Proline at 50 and 10 ppm and 0.2% DMSO used as controls. Each test concentration and standard was replicated twice on a plate. Compounds were screened against Phytophthora cactorum. The agar used in the test is a 1% PDA. 1000 spores/mL agar were added to the appropriate agar.
A ×10 stock solution in 2% DMSO was produced for each dose i.e. 200, 20, 2 and 0.2 ppm, and 10 μl of this added to the appropriate wells on the plate. An equivalent amount of 2% DMSO and Proline stock at 500 and 100 ppm were added for the controls. To each well 90 μl of the appropriate agar spore suspension was added to give the required final well concentrations. Plates were incubated at room temperature (18° C.) and assessed after 2 to 3 days. The amount of pathogen growth in each well was compared to the DMSO controls and an EC50 concentration was calculated. The results are provided in Table 1 in which G represents an EC50 above 20 ppm, F represents an EC50 of 1-20 ppm and E represents an EC50 less than 1 ppm.

The source of these data is patent publication US11224224B2, “Thiobenzoimidazole as fungicides” (REDAG CROP PROTECTION LTD, priority 2017, dated 2022).

≈ marks a conversion by molar mass, not a printed value.

`Cn1nnnc1-n1c(SCc2ccccn2)nc2ccccc21` [Example 2]: in the test with Pythium ultimum [1], the inhibition of growth at 20 ppm is more than 99% and the EC50 (commonly the concentration needed to bring the measured effect to its halfway point) fell in the range of 1 to 20 µg/mL (≈ 3.09 to 61.8 µM). In addition, in the test with Phytophthora cinnamomi, the inhibition of growth at 20 ppm was in the range of 50 to 99% and the EC50 was less than 1 µg/mL. Further, in the test with oomycete plant pathogens, the “control over the pathogens tested” value was “good to excellent control”. The inhibition of growth at 2 ppm with Pythium ultimum [2] was more than 99%.
Consider `Cn1nnnc1-n1c(SCc2cccc(NC(=O)C(F)(F)Oc3ccccc3)n2)nc2ccc(F)cc21` [Example 8], for which the EC50 with Pythium ultimum [1] and with Phytophthora cinnamomi was less than 1 µg/mL each time. Besides, the “control over the pathogens tested” value in the test with oomycete plant pathogens was “good to excellent control”. The inhibition of growth at 2 ppm in the test on Pythium ultimum [2] is 50 to 99%.
As to `Cn1nnnc1-n1c(SCC(=O)N2CCCC2)nc2ccccc21` [Example 25], the EC50 in the test with Pythium ultimum [1] and with Phytophthora cinnamomi was less than 1 µg/mL in each case. The “control over the pathogens tested” value in the test on oomycete plant pathogens is recorded as “good to excellent control”. The inhibition of growth at 2 ppm in the test with Pythium ultimum [2] lay within 50 to 99%.
Turning to `Cn1nnnc1-n1c(SCc2cccc(NC(=O)C3CC3)n2)nc2ccccc21` [Example 35], in the test on Phytophthora cactorum, the concentration giving a half-maximal response (EC50) lay within 1 to 20 µg/mL (≈ 2.46 to 49.2 µM). In addition, the inhibition of growth at 2 ppm with Pythium ultimum [2] was 50 to 99%.
For `CCC(=O)Nc1cccc(CSc2nc3ccccc3n2-c2nnnn2C)n1` [Example 36], in that order: more than 20 µg/mL and 50 to 99%.
For the molecule `COc1c(C)cnc(CSc2nc3ccccc3n2-c2nnnn2C)c1C` [Example 38], in the test on Phytophthora cactorum, the EC50 lay within 1 to 20 µg/mL (≈ 2.62 to 52.4 µM). The “control over the pathogens tested” value in the test with oomycete plant pathogens is reported as “good to excellent control”. Also, the inhibition of growth at 2 ppm in the test with Pythium ultimum [2] was more than 99%.
For `COc1ccnc(CSc2nc3ccccc3n2-c2nnnn2C)c1OC` [Example 39], in that order: 1 to 20 µg/mL (≈ 2.61 to 52.2 µM), “good to excellent control” and more than 99%.
On the same counts, the results for `COCCCOc1ccnc(CSc2nc3ccccc3n2-c2nnnn2C)c1C` [Example 40] are 1 to 20 µg/mL (≈ 2.35 to 47 µM), “good to excellent control” and 50 to 99%.
On the same counts, the results for `COc1ccnc(CSc2nc3ccccc3n2-c2nnnn2C)c1` [Example 42] are 1 to 20 µg/mL (≈ 2.83 to 56.6 µM), “good to excellent control” and more than 99%.
`Cn1nnnc1-n1c(SCc2ccncn2)nc2ccccc21` [Example 43]: the EC50 in the test on Phytophthora cactorum is more than 20 µg/mL. Also, the “% control Pythium ultimum 2 ppm” value in the test with Pythium ultimum [2] is reported as “D”.
With `Cn1nnnc1-n1c(SCc2cccc(NC(=O)C(F)(F)Oc3ccccc3)n2)nc2ccc(I)cc21` [Example 44], in the test with Phytophthora cactorum, the EC50 is more than 20 µg/mL. Also, in the test on Pythium ultimum [2], the “% control Pythium ultimum 2 ppm” value is on record as “D”.
Take `Cn1nnnc1-n1c(SCc2cccc(NC(=O)COc3ccccc3)n2)nc2ccc(F)cc21` [Example 47]: the EC50 in the test on Phytophthora cactorum is less than 1 µg/mL. In the test with oomycete plant pathogens, the “control over the pathogens tested” value is recorded as “good to excellent control”. For the same molecule, the inhibition of growth at 2 ppm in the test on Pythium ultimum [2] is more than 99%.
On to `Cn1nnnc1-n1c(SCc2nccs2)nc2ccc(F)cc21` [Example 48], for which, in the test on Phytophthora cactorum, the EC50 lay in the range of 1 to 20 µg/mL (≈ 2.88 to 57.6 µM). The “control over the pathogens tested” value with oomycete plant pathogens is reported as “good to excellent control”. The inhibition of growth at 2 ppm with Pythium ultimum [2] is more than 99%.
In the case of `Clc1cncc(Cl)c1-n1c(SCc2ccccn2)nc2ccccc21` [Example 51], in the test with Phytophthora cactorum, the concentration for a half-maximal effect (EC50) was more than 20 µg/mL. In addition, the “% control Pythium ultimum 2 ppm” value with Pythium ultimum [2] is reported as “D”.
In the test on Pythium ultimum [1], `Cn1nnnc1-n1c(SCc2ccccn2)nc2ccc(Br)cc21` [Example 52] displayed an inhibition of growth at 20 ppm of 50 to 99% and an EC50 of 1 to 20 µg/mL (≈ 2.49 to 49.7 µM). Moreover, in the test on Phytophthora cinnamomi, the inhibition of growth at 20 ppm fell in the range of 50 to 99% and the half-maximal effective concentration (EC50) was less than 1 µg/mL. For the same molecule, in the test on oomycete plant pathogens, the “control over the pathogens tested” value is given as “good to excellent control”.
`Cn1nnnc1-n1c(SCc2csc(NC(=O)OC(C)(C)C)n2)nc2ccc(Br)cc21` [Example 53]: the EC50 in the test with Pythium ultimum [1] and in the test on Phytophthora cinnamomi was less than 1 µg/mL in each case. Moreover, the “control over the pathogens tested” value with oomycete plant pathogens is reported as “good to excellent control”.
On to `CCNC(=O)CSc1nc2ccccc2n1-c1nnnn1C` [Example 55], for which the EC50 in the test on Phytophthora cactorum is more than 20 µg/mL. Further, in the test on Pythium ultimum [2], the inhibition of growth at 2 ppm is less than 50%.
Turning to `Cn1nnnc1-n1c(SCC(=O)N2CCOCC2)nc2ccccc21` [Example 56], the EC50 in the test with Phytophthora cactorum was more than 20 µg/mL. Further, the inhibition of growth at 2 ppm with Pythium ultimum [2] was less than 50%.
As to `Cn1nnnc1-n1c(SCC(=O)Nc2ccccc2)nc2ccccc21` [Example 57], in the test on Phytophthora cactorum, the EC50 was more than 20 µg/mL. The inhibition of growth at 2 ppm in the test with Pythium ultimum [2] is less than 50%.
For `CN(C)C(=O)CSc1nc2ccccc2n1-c1nnnn1C` [Example 58], in that order: more than 20 µg/mL and less than 50%.
For the molecule `Cn1nnnc1-n1c(Sc2ncccn2)nc2ccccc21` [Example 60, 1-(1-Methyl-1H-tetrazol-5-yl)-2-(pyrimidin-2-ylthio)-1H-benzo[d]imidazole], the EC50 with Phytophthora cactorum is more than 20 µg/mL. The inhibition of growth at 2 ppm in the test on Pythium ultimum [2] is less than 50%.
For the molecule `Cn1nnnc1-n1c(Sc2ccccn2)nc2ccccc21` [Example 61, 1-(1-Methyl-1H-tetrazol-5-yl)-2-(pyridin-2-ylthio)-1H-benzo[d]imidazole], the 50% effective concentration (EC50) in the test on Phytophthora cactorum is more than 20 µg/mL. For the same molecule, the “% control Pythium ultimum 2 ppm” value in the test with Pythium ultimum [2] is “D”.
As to `Cn1nnnc1-n1c(SCc2cccc(NC(=O)C3CC3)n2)nc2c(Cl)cccc21` [Example 63, N-(6-(((4-Chloro-1-(1-methyl-1H-tetrazol-5-yl)-1H-benzo[d]imidazol-2-yl)thio)methyl)pyridin-2-yl)cyclopropanecarboxamide], in the test with Phytophthora cactorum, the EC50 fell in the range of 1 to 20 µg/mL (≈ 2.27 to 45.4 µM). The “control over the pathogens tested” value in the test on oomycete plant pathogens is recorded as “good to excellent control”. The inhibition of growth at 2 ppm in the test with Pythium ultimum [2] was more than 99%.
Take `C#Cc1ccc2nc(SCc3ccccn3)n(-c3nnnn3C)c2c1` [Example 64, 6-Ethynyl-1-(1-methyl-1H-tetrazol-5-yl)-2-((pyridin-2-ylmethyl)thio)-1H-benzo[d]imidazole]: the EC50 in the test on Phytophthora cactorum was more than 20 µg/mL. Besides, the inhibition of growth at 2 ppm in the test on Pythium ultimum [2] is less than 50%.
For `C#Cc1ccc2nc(SCc3cccc(NC(=O)C(F)(F)Oc4ccccc4)n3)n(-c3nnnn3C)c2c1` [Example 65, N-(6-(((6-Ethynyl-1-(1-methyl-1H-tetrazol-5-yl)-1H-benzo[d]imidazol-2-yl)thio)methyl)pyridin-2-yl)-2,2-difluoro-2-phenoxyacetamide], in that order: more than 20 µg/mL and 50 to 99%.
Take `Cn1nnnc1-n1c(SCc2nccc3ccccc23)nc2ccccc21` [Example 68]: in the test with Phytophthora cactorum, the EC50 is more than 20 µg/mL. In the test with Pythium ultimum [2], the inhibition of growth at 2 ppm was 50 to 99%.
For `COc1cccnc1CSc1nc2ccccc2n1-c1nnnn1C` [Example 71], in that order: more than 20 µg/mL and less than 50%.
As to `Cn1nnnc1-n1c(SCc2cccc(C#N)n2)nc2ccccc21` [Example 72], in the test with Phytophthora cactorum, the EC50 is more than 20 µg/mL. Besides, the “% control Pythium ultimum 2 ppm” value in the test on Pythium ultimum [2] is recorded as “D”.
For the molecule `Cn1nnnc1-n1c(SCc2ccc(C#N)cn2)nc2ccccc21` [Example 74], the EC50 in the test with Phytophthora cactorum was more than 20 µg/mL. Besides, the inhibition of growth at 2 ppm with Pythium ultimum [2] was less than 50%.
In the case of `Cn1nnnc1-n1c(SCc2ncc(Cl)cc2Cl)nc2ccccc21` [Example 77], the concentration for a half-maximal effect (EC50) in the test on Phytophthora cactorum was more than 20 µg/mL. Also, in the test with Pythium ultimum [2], the inhibition of growth at 2 ppm fell in the range of 50 to 99%.
Take `Cn1nnnc1-n1c(SCc2cccc(NC(=O)C3CC3)n2)nc2cccc(Cl)c21` [Example 81]: the EC50 in the test with Phytophthora cactorum is more than 20 µg/mL.
Take `Cn1nnnc1-n1c(SCc2ccccn2)nc2cccc(Cl)c21` [Example 82]: the EC50 in the test with Phytophthora cactorum was more than 20 µg/mL. For the same molecule, the inhibition of growth at 2 ppm with Pythium ultimum [2] lay in the range of 50 to 99%.
For `COc1cc(F)cc2c1nc(SCc1ccccn1)n2-c1nnnn1C` [Example 85], in that order: more than 20 µg/mL and more than 99%.
